Experimental data from PubChem BioAssay AID256 (DTP/NCI, 2004).
Values joined by “and” are separate entries in the source; they are usually repeats but may differ in a detail not shown here. Equal entries are not always repeated. Toxic doses and inconclusive results are not listed.

System: CD2F1 mice, L1210 leukemia ip, survival T/C
Experiment: NCI In Vivo Anticancer Drug Screen. Data for tumor model L1210 Leukemia (intraperitoneal) in CD2F1 (CDF1) mice
Conditions: higher = longer survival
In short: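 Antitumor effect is scored in animals hosting a serially transplanted tumor. Values compare compound-dosed animals against vehicle-only controls as a simple quotient.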

[1] = endpoint: mean survival time, dose: 100.0 mg/kg/injection, schedule: Q04DX003 (ip), vehicle: saline
[2] = endpoint: mean survival time, dose: 200.0 mg/kg/injection, schedule: Q04DX003 (ip), vehicle: saline
[3] = endpoint: mean survival time, dose: 400.0 mg/kg/injection, schedule: Q04DX003 (ip), vehicle: saline
[4] = endpoint: mean survival time, dose: 100.0 mg/kg/injection, schedule: Q01DX009 (ip), vehicle: saline with Tween-80
[5] = endpoint: mean survival time, dose: 200.0 mg/kg/injection, schedule: Q01DX009 (ip), vehicle: saline with Tween-80
[6] = endpoint: mean survival time, dose: 50.0 mg/kg/injection, schedule: Q01DX009 (ip), vehicle: saline with Tween-80
[7] = endpoint: mean survival time, dose: 100.0 mg/kg/injection, schedule: Q04DX003 (ip), vehicle: saline with Tween-80
[8] = endpoint: mean survival time, dose: 200.0 mg/kg/injection, schedule: Q04DX003 (ip), vehicle: saline with Tween-80
[9] = endpoint: mean survival time, dose: 400.0 mg/kg/injection, schedule: Q04DX003 (ip), vehicle: saline with Tween-80

For `Cc1c2ccccc2cc2c1ccc1ccccc12`, the T/C (endpoint: mean survival time, dose: 9.0 mg/kg/injection, schedule: Q01DX009 (ip), vehicle: saline with Tween-80) was 106 % of control, the T/C (endpoint: mean survival time, dose: 17.5 mg/kg/injection, schedule: Q01DX009 (ip), vehicle: saline with Tween-80) was 108 % of control and the T/C (endpoint: mean survival time, dose: 35.0 mg/kg/injection, schedule: Q01DX009 (ip), vehicle: saline with Tween-80) was 108 % of control. The T/C (endpoint: mean survival time, dose: 70.0 mg/kg/injection, schedule: Q01DX009 (ip), vehicle: saline with Tween-80) was 103 % of control.

With `COc1cc2c(cc1O)CCCCC2O` (stereo not drawn) the T/C (endpoint: mean survival time, dose: 50.0 mg/kg/injection, schedule: Q01DX009 (ip), vehicle: other) was 107 % of control, the T/C (endpoint: mean survival time, dose: 100.0 mg/kg/injection, schedule: Q01DX009 (ip), vehicle: other) was 100 % of control and the T/C (endpoint: mean survival time, dose: 200.0 mg/kg/injection, schedule: Q01DX009 (ip), vehicle: other) was 92 % of control.

`c1ccc2c3c(ccc2c1)-c1oncc1CC3` was tested, and the T/C [1] was 98 % of control, the T/C [2] was 91 % of control and the T/C [3] was 102 % of control.

For `N#CCCOP(=O)(N1CC1)N1CC1`, the T/C (endpoint: mean survival time, dose: 3.9 mg/kg/injection, schedule: Q01DX001 (ip), vehicle: Klucel (hydroxypropylcellulose) (HPC)) was 100 % of control, the T/C (endpoint: mean survival time, dose: 4.0 mg/kg/injection, schedule: Q01DX009 (ip), vehicle: water) was 104 % of control and the T/C (endpoint: mean survival time, dose: 7.8 mg/kg/injection, schedule: Q01DX001 (ip), vehicle: Klucel (hydroxypropylcellulose) (HPC)) was 100 % of control. For the same compound, the T/C (endpoint: mean survival time, dose: 8.0 mg/kg/injection, schedule: Q01DX009 (ip), vehicle: water) was 114 % of control, the T/C (endpoint: mean survival time, dose: 15.6 mg/kg/injection, schedule: Q01DX001 (ip), vehicle: Klucel (hydroxypropylcellulose) (HPC)) was 109 % of control and the T/C (endpoint: mean survival time, dose: 31.2 mg/kg/injection, schedule: Q01DX001 (ip), vehicle: Klucel (hydroxypropylcellulose) (HPC)) was 122 % of control. For the same compound, the T/C (endpoint: mean survival time, dose: 62.5 mg/kg/injection, schedule: Q01DX001 (ip), vehicle: Klucel (hydroxypropylcellulose) (HPC)) was 121 % of control and the T/C (endpoint: mean survival time, dose: 64.0 mg/kg/injection, schedule: Q01DX009 (ip), vehicle: water) was 90 % of control.

In the case of `C=C1C(=O)O[C@@H]2C[C@@]3(C)CC(=O)C=C(C)[C@@H]3C[C@H]12`, the T/C (endpoint: mean survival time, dose: 100.0 mg/kg/injection, schedule: Q01DX001 (ip), vehicle: saline with Tween-80) is reported as 101 % of control, the T/C [4] is reported as 98 % of control and the T/C (endpoint: mean survival time, dose: 200.0 mg/kg/injection, schedule: Q01DX001 (ip), vehicle: saline with Tween-80) is reported as 97 % of control. The T/C [5] was 98 % of control, the T/C (endpoint: mean survival time, dose: 400.0 mg/kg/injection, schedule: Q01DX001 (ip), vehicle: saline with Tween-80) was 101 % of control and the T/C (endpoint: mean survival time, dose: 400.0 mg/kg/injection, schedule: Q01DX009 (ip), vehicle: saline with Tween-80) was 104 % of control.

`CCN(CC)N1C(=O)[N+](CC)(CC)N=C1[O-]` was tested, and the T/C [1] was 102 % of control, the T/C [2] was 95 % of control and the T/C [3] was 101 % of control.

In the case of `CC(=O)Nc1ccc(OCCOC(=O)Nc2ccc(Cl)cc2C)cc1`, the T/C (endpoint: mean survival time, dose: 12.5 mg/kg/injection, schedule: Q01DX009 (ip), vehicle: saline with Tween-80) is reported as 98 % of control, the T/C (endpoint: mean survival time, dose: 25.0 mg/kg/injection, schedule: Q01DX009 (ip), vehicle: saline with Tween-80) is reported as 95 % of control and the T/C [6] is reported as 95 % of control and 96 % of control. The T/C [5] was 92 % of control.

`O=S1(=O)CC23CC=CCC2(CC=CC3)C1` (stereo not drawn) was tested, and the T/C (endpoint: mean survival time, dose: 100.0 mg/kg/injection, schedule: Q04DX003 (ip), vehicle: other) was 100 % of control and the T/C (endpoint: mean survival time, dose: 200.0 mg/kg/injection, schedule: Q04DX003 (ip), vehicle: other) was 102 % of control.

`CC(S)c1ccccc1` (stereo not drawn) was tested, and the T/C [6] was 90 % of control, the T/C [4] was 102 % of control and the T/C [7] was 104 % of control. The T/C [5] was 104 % of control and the T/C [8] was 98 % of control.

In the case of `Cc1ccc(NC(=O)C(Cl)(Cl)Cl)cc1[N+](=O)[O-]`, the T/C [7] is reported as 102 % of control, the T/C [8] is reported as 96 % of control and the T/C [9] is reported as 98 % of control.

`CCC1(O)C(=O)OCc2c1cc1n(c2=O)Cc2cc3ccc(C#N)cc3nc2-1` (stereo not drawn) was tested, and the T/C (endpoint: median survival time, dose: 2.5 mg/kg/injection, schedule: Q04DX002 (ip), vehicle: saline with Tween-80) was 152 % of control, the T/C (endpoint: median survival time, dose: 5.0 mg/kg/injection, schedule: Q04DX002 (ip), vehicle: saline with Tween-80) was 196 % of control and the T/C (endpoint: median survival time, dose: 10.0 mg/kg/injection, schedule: Q04DX002 (ip), vehicle: saline with Tween-80) was 250 % of control and 365 % of control. The T/C (endpoint: median survival time, dose: 20.0 mg/kg/injection, schedule: Q04DX002 (ip), vehicle: saline with Tween-80) was 101 % of control and 103 % of control.

With `Cc1cccc(NC(=O)NCCBr)c1` the T/C [7] was 100 % of control, the T/C [8] was 88 % of control and the T/C [9] was 92 % of control.
